Experimental findings from ChEMBL document CHEMBL1150488 (1993) are described below.

≈ marks a conversion by molar mass, not a printed value.

Type in all cases: functional
Test [1] concerns Bacteroides fragilis. Nature of the test: Tested for zone of inhibition against Bacteroides fragilis UC6513 (1 mg/mL, 80 microL/12.7 mm).
Test [2] concerns Staphylococcus epidermidis. Kind of test: The compound (1 mg/mL, 80 microL/6.5 mm) was tested for zone of inhibition against Staphylococcus epidermidis UC719 (14H -, H: Hazy zone).
The test system of test [3] is Staphylococcus aureus. Kind of test: Tested for zone of inhibition against Staphylococcus aureus UC3665 (1 mg/mL, 80 microL/12.7 mm).
The test system of test [4] is Staphylococcus aureus. Kind of test: The compound (1 mg/mL, 80 microL/6.5 mm) was tested for zone of inhibition against Staphylococcus aureus UC6685 (20H -, H: Hazy zone).
Test [5] relates to Clostridium perfringens. Nature of the test: Tested for zone of inhibition against Clostridium perfringens UC6509.
In test [6] the test system is Prevotella melaninogenica. Nature of the test: Tested in vitro for its antibacterial activity against Bacteroides melaninogenicus UC 6523.
Test [7] relates to Bacteroides thetaiotaomicron. Nature of the test: The compound was tested in vitro for its antibacterial activity against Bacteroides thetaiotaomicron UC 6360.
The next test concerns Streptococcus pyogenes. Nature of the test: Tsted in vitro for its antibacterial activity against Streptococcus pyogenes UC152.
The subject of a further test is Escherichia coli. Nature of the test: Tested in vitro for its antibacterial activity against Escherichia coli UC9379.
For test [8], the system named is Staphylococcus aureus. Kind of test: Tested for zone of inhibition against Staphylococcus aureus UC6685 (1 mg/mL, 80 microL/6.5 mm).
The test system of the next test is Cutibacterium acnes. Nature of the test: Tested in vitro for its antibacterial activity against Propionibacterium acnes UC6564.
The subject of test [9] is Bacteroides fragilis. Kind of test: The compound was tested in vitro for its antibacterial activity against Bacteroides fragilis UC9370.
Test [10] relates to Parabacteroides distasonis. Nature of the test: Tested in vitro for its antibacterial activity against Bacteroides distasonis UC6518.
Test [11] concerns Clostridium perfringens. Kind of test: Tested in vitro for its antibacterial activity against Clostridium perfringens UC6509.
The subject of the next test is Fusobacterium nucleatum. Kind of test: Tested in vitro for its antibacterial activity against Fusobacterium nucleatum UC6324.
For test [12], the system named is Bacteroides thetaiotaomicron. Nature of the test: The compound (1 mg/mL, 80 microL/6.5 mm) was tested for zone of inhibition against Bacteroides thetaiotaomicron UC 6360.
The nature of test [13]: Tested in vitro for its antibacterial activity against Peptococcus variabilis UC6320.
Test [14] relates to Staphylococcus epidermidis. Kind of test: Tested for zone of inhibition against Staphylococcus epidermidis UC719 (1 mg/mL, 80 microL/6.5 mm).
Test [15] deals with Clostridium perfringens. Nature of the test: The compound (1 mg/mL, 80 microL/12.7 mm) was tested for zone of inhibition against Clostridium perfringens UC6509 (22H -, H: Hazy zone).
The subject of test [16] is Staphylococcus aureus. Kind of test: The compound (1 mg/mL, 80 microL/6.5 mm) was tested for zone of inhibition against Staphylococcus aureus UC6685 (38H -, H: Hazy zone).
Test [17] deals with Clostridium perfringens. Kind of test: The compound (1 mg/mL, 80 microL/12.7 mm) was tested for zone of inhibition against Clostridium perfringens UC6509.
Test [18] concerns Clostridium perfringens. Nature of the test: The compound (1 mg/mL, 80 microL/12.7 mm) was tested for zone of inhibition against Clostridium perfringens UC6509 (33H -, H: Hazy zone).
For test [19], the system named is Staphylococcus aureus. Kind of test: The compound (1 mg/mL, 80 microL/12.7 mm) was tested for zone of inhibition against Staphylococcus aureus UC3665 (18H -, H: Hazy zone).
For test [20], the system named is Staphylococcus aureus. Nature of the test: The compound (1 mg/mL, 80 microL/6.5 mm) was tested for zone of inhibition against Staphylococcus aureus UC6685 (21H -, H: Hazy zone).
Test [21] deals with Staphylococcus epidermidis. Nature of the test: The compound (1 mg/mL, 80 microL/6.5 mm) was tested for zone of inhibition against Staphylococcus epidermidis UC719 (20H -, H: Hazy zone).
For test [22], the system named is Bacteroides thetaiotaomicron. Kind of test: Tested in vitro for its antibacterial activity against Bacteroides thetaiotaomicron UC 9014[clindamycin 2 micro g/mL].
For test [23], the system named is Bacteroides fragilis. Kind of test: Tested in vitro for its antibacterial activity against Bacteroides fragilis UC9370 [clindamycin 1 micro g/mL].

In the case of `COCCOC(=O)N1C/C(=C(\C)CN=[N+]=[N-])C1=O`, the Diameter of inhibition zone worked out at 0 mm in the test with Bacteroides fragilis [1]; 14 mm in test [2]; 26 mm in the test on Staphylococcus aureus [3]; 20 mm in the test with Staphylococcus aureus [4]; 20 mm in the test with Clostridium perfringens [5].

With `CC(=O)OC[C@@H](C)[C@H]1CN(C(C)=O)C1=O`, the Diameter of inhibition zone with Bacteroides fragilis [1] worked out at 52 mm; in the test on Staphylococcus aureus [3] it was 0 mm; in the test with Clostridium perfringens [5], 36 mm; in the test on Staphylococcus aureus [8] it was 0 mm; in test [12], 0 mm. For the same compound, the MIC (usually the smallest concentration in the dilution series that meets the test's criterion for growth inhibition) in test [6] was 128 µg/mL (≈ 600 µM); in test [7] it was 128 µg/mL (≈ 600 µM); against Streptococcus pyogenes, above 512 µg/mL; in the test on Escherichia coli, above 512 µg/mL; in the test on Cutibacterium acnes it was above 256 µg/mL; with Bacteroides fragilis [9], 256 µg/mL (≈ 1200 µM). In addition, the MIC in test [10] is above 256 µg/mL; with Clostridium perfringens [11], above 256 µg/mL; with Fusobacterium nucleatum, 128 µg/mL (≈ 600 µM); in test [13] it was above 256 µg/mL.

Turning to `CC(=O)OC/C(C)=C1\CN(C(C)=O)C1=O`, the Diameter of inhibition zone in the test on Bacteroides fragilis [1] is 22 mm; in [14], 0 mm; in the test with Staphylococcus aureus [3] it was 0 mm; in the test with Staphylococcus aureus [8], 0 mm; in the test on Clostridium perfringens [15], 22 mm.

In the case of `CCCCCC(=O)N1C[C@H]([C@H](C)CF)C1=O`, the Diameter of inhibition zone in test [14] is 31 mm; in the test on Staphylococcus aureus [16], 38 mm; with Staphylococcus aureus [3] it was 48 mm; in the test with Clostridium perfringens [5] it was 79 mm.

Turning to `CCCC(=O)OC/C(C)=C1\CN(C(=O)CCC)C1=O`, the Diameter of inhibition zone with Bacteroides fragilis [1] was determined as 25 mm; in [14] it was 0 mm; with Clostridium perfringens [17], 30 mm; with Staphylococcus aureus [3], 0 mm; in the test with Staphylococcus aureus [8] it was 0 mm.

For the compound `CCCC(=O)OC[C@@H](C)[C@H]1CN(C(=O)c2ccccc2)C1=O`, the Diameter of inhibition zone in the test on Bacteroides fragilis [1] was found to be 24 mm; in the test on Clostridium perfringens [18], 33 mm; in test [14], 0 mm; in the test with Staphylococcus aureus [19], 18 mm; in the test on Staphylococcus aureus [8], 0 mm.

As for `CCCC(=O)OC[C@@H](C)[C@H]1CN(C(=O)CCC)C1=O`, the Diameter of inhibition zone in the test on Staphylococcus aureus [20] amounted to 21 mm; in test [21], 20 mm; in the test on Staphylococcus aureus [3] it was 28 mm; in the test with Clostridium perfringens [5], 63 mm. Besides, the MIC in test [6] was 8 µg/mL (≈ 29.7 µM); with Streptococcus pyogenes, above 160 µg/mL; against Escherichia coli, above 160 µg/mL; in test [22], 32 µg/mL (≈ 119 µM); against Cutibacterium acnes, 8 µg/mL (≈ 29.7 µM); in [10], 128 µg/mL (≈ 475 µM). Besides, the minimal inhibitory concentration (MIC) against Clostridium perfringens [11] stood at 128 µg/mL (≈ 475 µM); in the test with Fusobacterium nucleatum, 64 µg/mL (≈ 238 µM); in test [13] it was 256 µg/mL (≈ 950 µM); with Bacteroides fragilis [23], 64 µg/mL (≈ 238 µM).
